Data from patent US20150065472A1, “INTRAUTERINE APPLICATION OF 18-METHYL-15SS,16SS-METHYLENE-19-NOR-20-SPIROX-4-EN-3-ONE SYSTEMS, INTRAUTERINE SYSTEMS CONTAINING 18-METHYL-15SS,16SS-METHYLENE-19-NOR-20-SPIROX-4-EN-3-ONE, AS WELL AS THE USE THEREOF IN CONTRACEPTION AND GYNAECOLOGICAL THERAPY” (BAYER PHARMA AKTIENGESELLSCHAFT, priority 2012, published 2015).

Legend:
[1] = system: uterus of ovary-resected rats; assay: Uterine weight gain after implantation of progestin-containing IUS (rod) in ovary-resected rats; type: in vivo, rat; conditions: ovary-resected E2-treated rats, IUS (rod) in right uterine horn, FIG. 1/4
Procedure: (§1) The local uterine action of the progestin compared to systemic side effects (dissociation) was investigated on the basis of studies using rats. The uterus of ovary-resected rats responds to implantation of progestin-containing IUS (rods) with decidualization and weight gain. The local progestin effects were also determined on the basis of changes in gene expression.
(§2) Ovary-resected female rats were treated with estradiol (E2) for three days (0.2 μg/day/animal, subcutaneous dosing). On day 4, an IUS (rod) was implanted into the right uterine horn of each animal. The left uterine horn remained untreated for internal comparison. Administration of E2 was continued with a daily dose of 0.1 μg/animal to ensure responsiveness of the uterus (maintaining progesterone-receptor expression) to progestins. Blood was taken for LH level measurements on days 4, 10 and 17.

[2] = system: serum LH level of ovary-resected rats; assay: Serum luteinizing hormone (LH) level in ovary-resected rats carrying IUS (rod); type: in vivo, rat; conditions: FIG. 2/4
Procedure: Serum levels of luteinizing hormone (LH) are used for detecting systemic effects of the locally administered progestin. Basal serum-LH levels of ovary-resected rats are elevated compared to the levels of intact control animals. Undesired systemic efficacy of the uterine-administered progestin can be detected by a decrease in the LH level.
as §2

IGFBP-1 gene expression = assay: Gene expression analysis in rat uterine tissue after IUS (rod) administration; type: in vivo; conditions: rat uterus, FIG. 3/4
Procedure: as §1
Ovary-resected female rats were treated with estradiol (E2) for three days (0.2 μg/day/animal, subcutaneous dosing). On day 4, an IUS (rod) was implanted into the right uterine horn of each animal. The left uterine horn remained untreated for internal comparison. Administration of E2 was continued with a daily dose of 0.1 μg/animal to ensure responsiveness of the uterus (maintaining progesterone-receptor expression) to progestins. Blood was taken for LH level measurements on days 4, 10 and 17. […]
Gene expression analysis was carried out with from 50 ng to 200 ng of cDNA per reaction on an SDS7900HT Real.time PCR system (Applied Biosystems, Carlsbad, USA) using TaqMan probes (Applied Biosystems; IGFBP-1 Rn00565713_m1, Cyp26a1 Rn00590308_m1, PPIA Rn00690933_m1) and the Fast Blue qPCR MasterMix Plus (Eurogentec, Liège, Belgium; #RT-QP2X-03+FB). For relative quantification, cyclophilin A (PPIA) was used as an endogenous control. Relative expression levels were calculated according to the comparative delta delta CT method.

[3] = target: T1, human androgen receptor (hAR) (Homo sapiens, UniProt P10275); assay: hAR transactivation in PC3 cells stably transfected with hAR and MTV-luc reporter gene; type: cell-based; conditions: MTV-luc reporter
T1 construct: expressed in transfected cells; host or cells: PC3 (human prostate carcinoma) cells, stably transfected with hAR and MTV-luc reporter
T1 sequence (P10275 1-920): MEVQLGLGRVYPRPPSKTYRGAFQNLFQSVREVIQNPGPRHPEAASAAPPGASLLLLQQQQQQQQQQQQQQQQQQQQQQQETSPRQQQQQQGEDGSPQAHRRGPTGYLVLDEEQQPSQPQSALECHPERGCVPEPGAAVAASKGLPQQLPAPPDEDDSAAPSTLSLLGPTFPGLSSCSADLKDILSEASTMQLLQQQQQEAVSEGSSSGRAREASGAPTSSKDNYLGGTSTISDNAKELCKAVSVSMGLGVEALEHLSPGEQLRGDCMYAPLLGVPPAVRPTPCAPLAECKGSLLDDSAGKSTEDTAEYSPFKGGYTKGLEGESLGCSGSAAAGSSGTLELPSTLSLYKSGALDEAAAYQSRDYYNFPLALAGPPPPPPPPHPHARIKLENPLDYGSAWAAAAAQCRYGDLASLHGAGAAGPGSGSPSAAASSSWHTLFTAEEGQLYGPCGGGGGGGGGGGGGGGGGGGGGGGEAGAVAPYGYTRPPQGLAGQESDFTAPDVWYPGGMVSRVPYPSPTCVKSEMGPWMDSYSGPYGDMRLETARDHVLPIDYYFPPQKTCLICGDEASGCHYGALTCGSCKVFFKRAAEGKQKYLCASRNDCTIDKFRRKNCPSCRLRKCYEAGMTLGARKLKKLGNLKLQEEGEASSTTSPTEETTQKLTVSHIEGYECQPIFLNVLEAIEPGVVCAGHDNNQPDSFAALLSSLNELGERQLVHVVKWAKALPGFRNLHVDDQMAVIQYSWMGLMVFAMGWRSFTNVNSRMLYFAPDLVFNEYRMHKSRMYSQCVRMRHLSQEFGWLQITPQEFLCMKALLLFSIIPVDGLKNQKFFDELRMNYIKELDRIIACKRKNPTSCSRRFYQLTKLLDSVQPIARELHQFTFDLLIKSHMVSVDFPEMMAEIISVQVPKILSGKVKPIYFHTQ
From the text: The action on the human androgen receptor (hAR) was studied by means of transactivation analyses. For this, different concentrations of the test substances were to cells with stable expression of the human androgen receptor, and activation of the androgen receptor can be detected via a reporter gene.
For transactivation studies, PC3 (human prostate carcinoma) cells which have been stably transfected with hAR and the MTV-luc reporter gene were used. The culture medium used was RPM! medium (without L-glutamine; without Phenol Red) #E15-49 PAA L-glutamine 200 mM #25030-024 Gibco BRL 100 U/100 μg/ml penicillin/streptomycin Gibco # 15140-122, with 10% foetal calf serum (FCS). The cells were cultured at 37° C. and 5% CO2. The test medium corresponded to the culture medium, except that 10% FCS was replaced with 5% activated carbon-treated FCS (CCS). Cells were seeded in wells of a 96 well plate (“CulturPlate” from Packard #6005180) with 2×10^4 cells/well/200 μl of test medium. The cells were incubated with different concentrations of the test substances, and 80 μl of substrate were measured using the “steadylite HTS Reporter Gene Assay System” from Perkin Elmer.

[4] = In-vitro metabolic studies (liver); type: in vitro ADME; conditions: all in-vitro metabolic studies (liver)
[5] = Break-down in vivo in animal species; conditions: all animal species studied in vivo
[6] = In-vitro break-down (liver) for humans; type: in vitro ADME; conditions: human liver in vitro

Row | Structure (SMILES) | local efficacy by way of weight gain in the IUS-carrying uterine horn [1] | LH decrease (systemic side effect) ([2]; 10 μg/animal and day dose of compound A) | LH decrease (systemic side effect) ([2]; compound A release range tested 0.6-10 μg per animal and day (except the 10 μg dose)) | rate of release from the IUS at which IGFBP-1 gene expression is induced, lower than with levonorgestrel (IGFBP-1 gene expression) | EC50 [3] [nM] | break-down rate in in-vitro metabolic studies (liver) [4] | break-down rate in vivo [5] | break-down rates in vitro (liver) for humans [6] | LH decrease (systemic side effect) ([2]; compound B release range tested 1-45 μg/animal and day)
1 | CC[C@]12CCC3C4CCC(=O)C=C4CCC3C1[C@@H]1C[C@@H]1[C@@]21CCCO1 (stereo partly drawn) [compound A, 18-methyl-15β,16β-methylene-19-nor-20-spirox-4-en-3-one] | dose-dependent local efficacy | exception | no LH decrease | approx. 7 × | 6.9 | very fast | very fast | very rapid | 
2 | CC[C@]12CCC3C4CCC(=O)C=C4[C@H]4C[C@H]4C3C1[C@@H]1C[C@@H]1[C@@]21CCCO1 (stereo partly drawn) [compound B, 18-methyl-6α,7α,15β,16β-dimethylene-19-nor-20-spirox-4-en-3-one] | dose-dependent local efficacy |  |  |  | 56 | very fast | very fast | very rapid | no LH decrease
